Test results as given in article PMC2730737 (Biochemistry, 2009).
Where a chain is given by its changes, count along the chain named.

How the values were obtained:
WT AdoMetDC = target: T1, WT AdoMetDC (Homo sapiens, UniProt P17707); test: Stopped-flow intrinsic protein fluorescence binding kinetics, WT AdoMetDC; settings: for intrinsic fluorescence change on rapid mixing with AdoMetDC: stopped-flow, excitation 298 nm, emission 340 nm
T1 sequence (P17707 1-67 limits assumed): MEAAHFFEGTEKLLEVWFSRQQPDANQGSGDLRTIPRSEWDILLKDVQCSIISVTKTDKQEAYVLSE
T1 sequence (P17707 68-334 limits assumed): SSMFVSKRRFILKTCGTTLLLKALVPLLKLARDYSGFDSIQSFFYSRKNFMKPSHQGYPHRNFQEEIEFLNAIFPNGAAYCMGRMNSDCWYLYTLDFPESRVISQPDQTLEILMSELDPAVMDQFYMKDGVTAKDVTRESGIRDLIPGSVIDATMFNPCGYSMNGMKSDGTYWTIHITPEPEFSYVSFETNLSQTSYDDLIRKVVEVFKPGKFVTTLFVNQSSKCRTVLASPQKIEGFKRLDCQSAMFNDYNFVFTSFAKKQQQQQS

AdoMetDC F223A mutant = target: T2, AdoMetDC F223A mutant (Homo sapiens, UniProt P17707, F223A); test: Stopped-flow intrinsic protein fluorescence binding kinetics, F223A mutant; settings: single exponential fit
T2 sequence (P17707 1-67 limits assumed): T1 sequence (P17707 1-67 limits assumed)
T2 sequence (P17707 68-334 F223A limits assumed): T1 sequence (P17707 68-334 limits assumed) with F156A

[1] = modeling studies using NMR constraints, molecular mechanics; cited from earlier work
AdoMetDC = target: T3, AdoMetDC (Homo sapiens, UniProt P17707); settings: cited from earlier work
T3 sequence (P17707 1-67 limits assumed): T1 sequence (P17707 1-67 limits assumed)
T3 sequence (P17707 68-334 limits assumed): T1 sequence (P17707 68-334 limits assumed)

k2 + k−2 (WT AdoMetDC; WT enzyme, hyperbolic fit of slow phase) [s⁻¹] | k−1 (WT AdoMetDC; WT enzyme, linear fit of fast phase, 25 °C, pH 7.5) [s⁻¹] | intrinsic fluorescence change on rapid mixing with AdoMetDC (WT AdoMetDC) | k1 (slope) (AdoMetDC F223A mutant) | k−1 (y-intercept) (AdoMetDC F223A mutant) [s⁻¹] | SMILES | energy difference between the anti and syn conformations in solution [1] [kcal/mol] | IC50 (AdoMetDC) [µM]
– | – | too weak to measure | – | – | C[S+](C)C[C@H]1O[C@@H](n2cnc3c(N)ncnc32)[C@H](O)[C@@H]1O [MMTA, 5′-deoxy-5′-(dimethylsulfonio)adenosine] | – | 15
– | – | no significant change | – | – | Nc1ncnc2c1ncn2[C@@H]1O[C@H](CSCC[C@H](N)C(=O)O)[C@@H](O)[C@H]1O [SAH, S-adenosylhomocysteine] | – | –

SMILES | k2 + k−2 (WT AdoMetDC; WT enzyme, hyperbolic fit of slow phase) [s⁻¹] | k−1 (WT AdoMetDC; WT enzyme, linear fit of fast phase, 25 °C, pH 7.5) [s⁻¹] | intrinsic fluorescence change on rapid mixing with AdoMetDC (WT AdoMetDC) | k1 (slope) (AdoMetDC F223A mutant) | k−1 (y-intercept) (AdoMetDC F223A mutant) [s⁻¹] | energy difference between the anti and syn conformations in solution [1] [kcal/mol] | IC50 (AdoMetDC) [µM]
C[S+](CC[C@H](N)C(=O)[O-])C[C@H]1O[C@@H](n2cnc3c(N)ncnc32)[C@H](O)[C@@H]1O (stereo partly drawn) [AdoMet, S-adenosylmethionine] | 3.7 ± 0.2 | 33 ± 2 | intrinsic fluorescence change was observed | 1.7 ± 0.3 × 10^−4 μM^−1s^−1 | 2.4 ± 0.2 | -34 | –
